Results from ChEMBL document CHEMBL5385973, “Progress in small-molecule inhibitors targeting PD-L1” (RSC Med Chem, 2024).

Columns and labels:
[1] = biological target: T1, Programmed cell death protein 1/Programmed cell death 1 ligand 1 (Homo sapiens, UniProt Q9NZQ7); assay: Inhibition of human […] interaction incubated for 15 mins by TR-FRET assay; format: protein-complex assay
[2] = biological target: T1, Programmed cell death protein 1/Programmed cell death 1 ligand 1; assay: Inhibition of PD-1/PD-L1 (unknown origin) interaction incubated for 1 hr by HTRF assay; format: protein-complex assay
[3] = biological target: Programmed cell death 1 ligand 1 (Homo sapiens) (UniProt Q9NZQ7); assay: Binding affinity to PD-L1 (unknown origin) assessed as Gibbs free energy change
[4] = biological target: T1, Programmed cell death protein 1/Programmed cell death 1 ligand 1; assay: Inhibition of PD-1/PD-L1 (unknown origin) interaction; format: protein-complex assay
[5] = biological target: T1, Programmed cell death protein 1/Programmed cell death 1 ligand 1; assay: Inhibition of PD-1 (unknown origin)/PD-L1 (unknown origin) interaction by HTRF binding assay; format: protein-complex assay
[6] = biological target: T1, Programmed cell death protein 1/Programmed cell death 1 ligand 1; assay: Inhibition of human PD-1/PD-L1 interaction incubated for 24 hrs by HTRF assay; format: protein-complex assay
[7] = biological target: T1, Programmed cell death protein 1/Programmed cell death 1 ligand 1; assay: Inhibition of PD-1/PD-L1 (unknown origin) protein-protein interaction incubated for 15 mins by TR-FRET assay; format: protein-complex assay
[8] = biological target: T1, Programmed cell death protein 1/Programmed cell death 1 ligand 1; assay: Inhibition of PD-1/PD-L1 interaction (unknown origin) by AlphaLISA assay relative to control; format: protein-complex assay
[9] = biological target: T1, Programmed cell death protein 1/Programmed cell death 1 ligand 1; assay: Inhibition of PD-1/PD-L1 interaction (unknown origin) by TR-FRET assay; format: protein-complex assay
[10] = tested on: Jurkat; assay: Induction of T cell activation in human Jurkat T cells overexpressing PD-1 co-cultured with Chinese hamster CHO cells overexpressing PD-L1 assessed as increase in luciferase activity incubated for 6 hrs by Bio-GloTM reagent based immune checkpoint blockade assay; format: functional
[11] = biological target: T1, Programmed cell death protein 1/Programmed cell death 1 ligand 1; assay: Inhibition of PD-1/PD-L1 (unknown origin) interaction incubated for 2 hr by TR-FRET assay; format: protein-complex assay

T1 sequence (Q15116 whole entry): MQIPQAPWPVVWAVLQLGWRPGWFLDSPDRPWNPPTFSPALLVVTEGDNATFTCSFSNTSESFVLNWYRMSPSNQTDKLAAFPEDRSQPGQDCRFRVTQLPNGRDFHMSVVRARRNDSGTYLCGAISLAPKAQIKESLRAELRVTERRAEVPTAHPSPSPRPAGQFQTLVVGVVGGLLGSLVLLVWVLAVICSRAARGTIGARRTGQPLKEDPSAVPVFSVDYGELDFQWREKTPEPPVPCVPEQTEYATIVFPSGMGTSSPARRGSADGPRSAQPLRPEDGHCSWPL
T1 sequence (Q9NZQ7 whole entry): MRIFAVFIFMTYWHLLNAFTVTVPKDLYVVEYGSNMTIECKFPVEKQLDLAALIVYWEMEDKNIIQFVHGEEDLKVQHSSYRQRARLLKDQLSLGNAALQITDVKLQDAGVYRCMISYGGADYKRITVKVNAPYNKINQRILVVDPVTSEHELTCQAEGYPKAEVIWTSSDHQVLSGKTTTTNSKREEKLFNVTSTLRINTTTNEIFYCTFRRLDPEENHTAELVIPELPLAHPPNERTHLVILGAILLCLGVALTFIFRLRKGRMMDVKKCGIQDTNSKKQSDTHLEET
Sequence of Programmed cell death 1 ligand 1 (Homo sapiens) (Q9NZQ7 whole entry): as above

`CS(=O)(=O)c1cncc(CCc2nc(OCc3cccc(-c4cccc(-c5ccc6c(c5)C[C@H](N)C6)c4Cl)c3Cl)c(Br)cc2CN2CCCC[C@@H]2C(=O)O)c1` gave an IC50 [1] of 0.09 nM.
With `Cc1c(COc2cc(OCc3ccc(OC(F)(F)F)nc3)c(N3CCCCC3C(=O)O)cc2Cl)cccc1-c1ccccc1` (centres undefined) the IC50 [2] was 56.6 nM.
In the case of `Cc1c(COc2cc(OCc3cccc(C#N)c3)c(CN3C[C@H](O)C[C@@H]3C(=O)O)cc2Cl)cccc1-c1ccc2c(c1)OCCO2`, the deltaG [3] is reported as -34 kcal/mol.
For `Fc1cccc(-c2nccc(N[C@@H]3CO[C@@H]4[C@H]3OC[C@H]4NCc3ccccn3)n2)c1`, the deltaG [3] was -32 kcal/mol.
With `O=C(O)[C@H](CO)NCc1ccc(Nc2nsc3c(-c4ccc5c(c4)OCCO5)cccc23)c(Br)c1` the IC50 [4] was 5.7 nM.
`CC(C)OC(=O)[C@H](CO)NCc1cc(Cl)c(OCc2cccc(-c3ccccc3)c2Br)cc1OCc1cccnc1` gave an IC50 [5] of 45.2 nM.
Work on `Cc1c(/C=C/c2ccc(CNC(C)(CO)C(=O)O)cc2C(F)(F)F)cccc1-c1ccc2c(c1)OCCO2` (centres undefined) yielded an IC50 [6] of 18 nM.
`Cc1cc(/C=C/c2ccc3cc(N(C)C)ccc3[n+]2C)c(C)n1-c1ccccc1` was tested, and the IC50 [7] was 29.7 nM.
`Cc1c(COc2cc(OCc3cncc(C#N)c3)c(CN(CCCN(C)C)CCS(=O)(=O)O)cc2Cl)cccc1-c1ccc2c(c1)OCCO2` showed an IC50 [8] of 2.7 nM.
With `Cc1c(COc2cc(OCc3cncc(C#N)c3)c(CNC(C)(C)C(=O)O)cc2Cl)cccc1-c1ccccc1` the IC50 [8] was 2.7 nM.
With `Cc1c(COc2cc(OCc3cccc(C#N)c3)c(CNC(CO)(CO)CO)cc2Cl)cccc1-c1cccc(-c2cc(C(=O)N3CC[C@@H](O)C3)no2)c1` the IC50 [9] was 23 nM.
Compound `O=C(O)[C@H](CO)NCc1cc(Cl)c(OCc2cccc(-c3ccccc3)c2Br)cc1OCc1cccnc1` has an IC50 [5] of 1.1 nM.
Compound `Cn1nc(Nc2cccc(-c3ccc4c(c3)OCCO4)c2Cl)c2ccc(CN[C@H](CO)C(=O)O)cc21` has an EC50 [10] of 1610 nM and an IC50 [11] of 9.6 nM.
